Experimental data published in US20110081662A1, “SCREENING METHODS FOR BONE MORPHOGENETIC MIMETICS” (THRASOS THERAPEUTICS, INC., priority 2000, published 2011).
pIC50: −log10 of the molar value. Bridges are numbered along the chain shown (N, C = ends). Where no end group is shown, it is not given here.

Legend:
[1] = test system: BMP-7 receptor-enriched plasma membrane fraction of ROS cells; assay: Radio-ligand receptor assay (displacement of 125I-labeled BMP-7); type: binding, rat
Description: Radio-ligand receptor Assay: The receptor-binding activities of various BMP ligands (New York Public Health Labs, Albany, N.Y.) were determined by an equilibrium displacement binding isotherm assay using BMP-7 receptor-enriched plasma membrane fraction of ROS cells (ATCC 17-2.8) and ^125I-labeled BMP-7 (NEN, Billerica, Mass.) as ligand. Purified BMP-7 was radio-iodinated BMP-7 to a specific activity of 70-78 uCi/ug by a modified procedure of lactoperoxidase method (Schneyer, A. L., et al., Endocrinology 119, 1446-1453 (1986)). The percent bindability of radioiodinated BMP-7 to excess receptor is 30-37%. Receptors from ROS cells are obtained by a procedure previously described (Dattatreyamurty, B., et al., (1986) J. Biol. Chem. 261.). […] In a typical assay, fixed amounts of ^125I-labeled sol. BMP-7 (−80.000 cpm) were incubated with a fixed amount of receptor-enriched plasma membrane fraction in the presence (5 ug. for non-specific binding) or absence of excess unlabeled BMP-7 (for total binding). Displacement curves were generated with increasing concentrations of BMP-7 standard preparation (5-2000 ng). The assay incubations were carried out in a reaction volume of 300 μl with shaking for 22 hrs. at 4° C. Bound and unbound ^125I-labeled BMP-7 were separated by centrifugation (30,500×g. 30 minutes). The supernatants were aspirated and pellets washed before counting in a gamma counter (Packard Instr. Downers Grove, Ill.). The concentration of test agent required to give 50% inhibition of total specific binding of ^125I-labeled BMP-7 ^(ED50^) was calculated from competitive data.

[2] = test system: BMP-7 induced and basal alkaline phosphatase activity in ROS cells (rat Osteosarcoma 17/2.8); assay: ROS cell based alkaline phosphatase assay; details: for pIC50: peptide together with BMP-7 (1.33 nM), ROS cells, 2 days, read-out: peptide concentration giving 50% inhibition of cellular responsiveness to BMP-7
Description: ROS Cell Based Alkaline Phosphatase Assays: BMP-7 and test agents that bind BMP-7 receptors were analyzed by in vitro bioassay. This assay defines the role of these test agents at the receptor-binding site. It is believed that some of the test agents can effectively interact with receptors and inhibit BMP-7 induced target cell responsiveness, thereby acting as functional antagonists. Alternatively, these agents may mimic BMP-7 functions inducing alkaline phosphatase activity in ROS cells, thus acting as functional agonists. An assay procedure as described by Maliakal, J. C., et al., Growth Factors 11, 227-234, (1994) determined the biological activities of BMP-7 peptides. In a typical experiment, rat Osteosarcoma (17/2.8) cells were plated in 96 well plates (3.0×10^4 cells/well) and incubated overnight at 37 C in 5-6% CO2 incubator. Next day, the plates were examined to make sure that cells are healthy & confluent. Cells were treated with increasing concentrations of BMP-7 standard (1-10,000 ng/ml) or test agents (0.02-200 μM) or appropriate concentrations of test agent alone or with BMP-7 standard prepared in medium containing 1% FBS and incubated for 2 days at 37 C in 5-6% CO2 incubator. The cellular content of alkaline phosphatase activity was determined by the method of Reddi, A. H. & Huggins, C. B. Proc. Natl. Acad. Sci. USA 69, 1601-1605 (1972). Enzyme estimations were routinely carried out in 96 well plates. Following removal of culture medium, cells were washed with pre-warmed PBS (150 μl) and further incubated in 100 μl of pre-warmed 1% Triton X-100 for 30 minutes at 37 C. Plates were centrifuged for 10 minutes at full speed, and recovered samples (each 15 μl) were assayed for enzyme activity by adding 90 μl p-nitrophenyl phosphate (Sigma, St. Louis, Mo.) as a substrate in 0.05 M glycine-NaOH buffer, pH 9.3 and incubating for 20 minutes at 37 C. The reaction was stopped by adding 75 ul of 0.2 N NaOH/well and absorbance at 405/490 nm is measured on a Dynatech MR 700 plate reader (Dynatech Laboratories, U.K.). Results are expressed as concentration of peptide/small molecule inhibitor (with antagonist activity) required to give 50% inhibition of maximum response to BMP-7 standard. The activities of test agents that stimulate cell responsiveness (with agonist activity), are expressed relative to BMP-7 standard.

daf-4 ECD = molecular target: T1, daf-4 ECD (Caenorhabditis elegans, UniProt P50488); assay: BMP binding to purified daf-4 ECD (ligand blot, Scatchard analysis); set-up: species or system C. elegans
T1 construct: 1 includes additional portions on the N and C terminus; made in house; host or cells: transfected DHFR(-) CHO cell line PJ511.9.8, purified from conditioned medium
T1 sequence (P50488 with tags, fused parts or gaps): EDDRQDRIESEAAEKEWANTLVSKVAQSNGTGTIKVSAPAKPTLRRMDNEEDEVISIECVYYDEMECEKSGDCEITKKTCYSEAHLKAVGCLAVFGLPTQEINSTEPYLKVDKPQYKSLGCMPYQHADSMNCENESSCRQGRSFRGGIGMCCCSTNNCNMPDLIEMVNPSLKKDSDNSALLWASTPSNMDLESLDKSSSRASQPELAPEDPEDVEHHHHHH
Description: A novel ligand-blot technique was developed to evaluate the binding of BMP-7 to the purified daf-4 ECD.

[3] = lower peptide concentrations (0.6-60 μM)

Substance	effect on basal cell responsiveness (basal alkaline phosphatase activity) ([2]; peptide alone)	behaviour of peptide on BMP-7 induced cell responsiveness ([2]; peptide together with BMP-7)	pIC50 [2]	further results
CFRDLGWQDWIIAPC, SEQ I.D NO. 4; 15 residue peptide cyclized at the ends (disulfide 1-15 (inferred); listed as Homo sapiens) [Peptide F1-2]	weakly inhibiting	antagonist	5.00	activity in radioligand receptor assay [1]: relatively weak activity; concentration required to inhibit the binding of 125I-labeled BMP-7 to the receptor ([1]; ROS cell plasma membranes): 179 µM
CELYVSFRDLGWQDWIIAPEGYAAYC, SEQ I.D NO. 3; BMP-7 finger 1 peptide with cyclized ends (disulfide 1-26 (inferred); listed as Homo sapiens) [Peptide F1-1]	–	antagonist	4.70	peptide concentration effective to inhibit basal cellular responsiveness ([2]; peptide alone): 52 to 260 µM
CCFINPETVCC, SEQ I.D NO. 6; cyclized (disulfide (positions not given here); also: cyclized (mode not given here); listed as Homo sapiens) [Peptide H-2C]	inhibiting	antagonist	5.30	effect on binding of 125I-labeled BMP-7 to the receptor ([1]; peptide at 8 μM): potentiated
BMP-4: bone morphogenetic protein	–	–	–	binding to extracellular domain of daf-4 (daf-4 ECD): readily binds
CYFDDSSNVIC SEQ I.D NO. 7; 9 residues, ends cyclized (disulfide 1-11 (inferred); listed as Homo sapiens) [Peptide F2-2]	–	–	–	effect on responsiveness to BMP-7 at higher concentrations ([2]; higher peptide concentrations (above 0.6-60 μM)): inhibited; behaviour of peptide on BMP-7 induced cell responsiveness at lower concentrations [2, 3]: weak agonist; potentiation of BMP-7 induced cell responsiveness [2, 3]: 20%
CLNAISVLYFDDSSNVILKKYRNMVVRC, SEQ ID NO. 10; cyclized (disulfide 1-28 (inferred); listed as Homo sapiens) [Peptide F2-1]	effectively inhibited	effectively inhibited	5.10	–
H-1: CAFPLNSYMNATNHAIVQTLVHFINPETVPKC SEQ ID NO 5; heel peptide, cyclized (disulfide 1-32 (inferred); listed as Homo sapiens) [Peptide H-1]	effective only at very high concentrations	weak antagonist	–	concentrations required to inhibit the BMP-7 induced cell response ([2]; peptide together with BMP-7): 44 to 220 µM
F2-2c: CIVNSSDDFYC SEQ I.D NO. 8; control peptide, residues of F2-2 in reverse order (disulfide 1-11 (inferred); listed as Homo sapiens) [Peptide F2-2c, reference compound]	no effect	no effect	–	activity in radioligand receptor assay [1]: inactive
